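Grown in 96-well plates, cells were treated for 48 hours with each compound at five concentrations. Insufficient inhibition: endpoint recorded as highest concentration tested. Definition used: TGI = concentration required for complete inhibition of growth.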

Common to all, as to experiment: NCI-60 cell line screen, 48 h
The subject of test [1] is A498 renal.
In test [2] the test system is ACHN renal.
In test [3] the test system is CCRF-CEM leukemia.
Test [4] deals with EKVX NSCLC.
The test system of test [5] is HCT-15 colon.
Test [6] concerns HOP-62 NSCLC.
The subject of test [7] is HT29 colon.
The subject of test [8] is MCF7 breast.
Test [9] concerns MDA-MB-231 breast.
The subject of test [10] is MDA-MB-435.
For test [11], the system named is MDA-N.
The subject of test [12] is NCI-H460 lung.
Test [13] concerns NCI-H522 lung.
Test [14] has as its system SK-MEL-28 melanoma.
Test [15] relates to SK-MEL-5 melanoma.
Test [16] concerns SN12C renal.
The subject of test [17] is SNB-75 CNS.
Test [18] relates to SR leukemia.
Test [19] relates to T-47D breast.
In test [20] the test system is UACC-62 melanoma.

With `N#CC1=C(C#N)/C(=C(\C#N)C(C#N)C#N)N=C1N`, the TGI in [1] is 65.4 µM; in test [2], more than 100 µM; in test [3], 50.7 µM; in test [4], more than 100 µM; in [5], 64.3 µM; in test [6] it was more than 66.6 µM. Moreover, the TGI is 62.1 µM in test [7]; more than 100 µM in test [8]; more than 100 µM in [9]; 36.7 µM in test [10]; 30.3 µM in test [11]; more than 100 µM in test [12]. The TGI in test [13] was 47.7 µM; in test [14], 52 µM; in test [15] it was 31.8 µM; in [16] it was more than 100 µM; in test [17], more than 81.8 µM; in test [18] it was 66.7 µM. Moreover, the TGI in [19] is more than 100 µM; in test [20], 30.3 µM.

For the molecule `COc1ccc(OC)c(NC(=O)C(=O)Nn2c(=S)[nH]c3ccccc3c2=O)c1`, the TGI in [1], in test [2], in test [3], in test [4], in [5] and in [6] was more than 100 µM each time. Moreover, the TGI in test [7], in test [8], in [9], in [10], in [11] and in [12] was more than 100 µM each time. For the same molecule, the TGI in test [13], in [14], in test [15], in test [16], in test [17] and in [18] was more than 100 µM each time. Besides, the TGI in test [19] and in test [20] was more than 100 µM each time.

As to `O=[N+]([O-])/C(Cl)=C(\Nc1ccccc1)C(Cl)=C(Cl)Cl`, the TGI in test [1] is 65.4 µM; in test [2], more than 100 µM; in test [3], 42.9 µM; in test [4], more than 100 µM; in test [5] it was 66.6 µM; in [6] it was 56.6 µM. For the same molecule, the TGI in test [7] is 69.9 µM; in [8], 60.4 µM; in test [9], 79.6 µM; in [10], 35.1 µM; in test [11], more than 100 µM; in test [12], more than 100 µM. Besides, the TGI in test [13] was more than 100 µM; in test [14], more than 100 µM; in [15], 47 µM; in [16] it was more than 100 µM; in test [17], 20.5 µM; in [18], 69.9 µM. In addition, the figures for the TGI in test [19] and in test [20] were more than 100 µM and 94.5 µM, respectively.

For the molecule `CC(=O)NCC1(c2ccccc2)CCN(CC2COc3ccccc3O2)CC1` (centres undefined), the TGI in test [1], in test [2], in test [3], in test [4], in test [5] and in test [6] was more than 100 µM throughout. Moreover, the TGI in test [7], in [8], in test [9], in [10], in test [11] and in test [12] was more than 100 µM each time. The TGI in test [13], in [14], in [15], in test [16], in test [17] and in test [18] was more than 100 µM each time. Besides, the TGI in test [19] and in test [20] was more than 100 µM throughout.

For `COC1C=C(NCC2(CO)CCC2)NC(N)=N1` (centres undefined), the TGI in test [1], in test [3], in [4], in test [5], in [6] and in test [7] was more than 100 µM in each case. In addition, the TGI in test [8], in [9], in test [10], in test [11], in [12] and in test [13] was more than 100 µM each time. Moreover, the TGI in test [14], in test [15], in test [16], in test [17], in test [18] and in [19] was more than 100 µM each time. The same molecule had a TGI in test [20] of more than 100 µM.

As to `O=c1oc2ccccc2cc1-c1nnc(-c2ccccc2)s1`, the TGI in test [1] was 43.6 µM; in test [2], more than 100 µM; in [3], more than 100 µM; in [4], more than 100 µM; in test [5] it was more than 100 µM; in test [6], more than 57.1 µM. In addition, the TGI was more than 100 µM in test [7]; more than 100 µM in [8]; 46.3 µM in [9]; 12.9 µM in test [10]; more than 78.1 µM in test [11]; more than 100 µM in test [12]. Further, the TGI in test [13] was more than 100 µM; in test [14], more than 100 µM; in test [15], more than 100 µM; in test [16], more than 100 µM; in [17], 45.6 µM; in test [18], more than 36.8 µM. Besides, the figures for the TGI in test [19] and in test [20] were more than 85.2 µM and more than 100 µM, respectively.

On to `CC1(C)OC(=O)C(C)(C)OC1=O`, for which the TGI in [1], in [2], in test [3], in [4], in test [5] and in [6] was more than 100 µM each time. In addition, the TGI in test [7], in test [8], in [9], in test [10], in [11] and in test [12] was more than 100 µM throughout. In addition, the TGI in [13], in test [14], in [15], in [16], in test [17] and in [18] was more than 100 µM in each case. For the same molecule, the TGI in test [19] and in test [20] was more than 100 µM throughout.

The values are drawn from PubChem BioAssay (NCI).
